Calls of active or inactive are those of the source. The calls are words filed in the database; no cut-off is given here.

The nature of data set [1]: Drug distribution in mouse lung at 5 mg/kg, po administered as single dose and measured after 8 hrs by LC-MS analysis. Type of data set: ADME, organism-based. The settings on record: read-out: Drug uptake.
Data set [2] deals with T1, Free fatty acid receptor 4 (Homo sapiens) (UniProt Q5NUL3).
T1 sequence (whole entry): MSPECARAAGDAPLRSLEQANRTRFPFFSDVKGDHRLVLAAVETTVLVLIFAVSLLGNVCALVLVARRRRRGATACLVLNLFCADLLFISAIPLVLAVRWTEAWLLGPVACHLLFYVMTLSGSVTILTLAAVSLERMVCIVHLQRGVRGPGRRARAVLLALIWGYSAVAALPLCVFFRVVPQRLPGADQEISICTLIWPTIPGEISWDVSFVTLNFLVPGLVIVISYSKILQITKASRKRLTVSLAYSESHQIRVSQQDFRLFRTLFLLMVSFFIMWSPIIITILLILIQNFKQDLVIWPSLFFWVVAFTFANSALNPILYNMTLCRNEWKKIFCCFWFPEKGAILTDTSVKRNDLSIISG
The experiment in a line: Antagonist activity at GPR120 (unknown origin) expressed in HEK293 cells co-expressing Galpha16 assessed as inhibition of TUG-981 induced calcium response upto 100 uM incubated for 10 mins by calcium mobilization assay. Type of data set: functional, cell-based.

The nature of data set [3]: Drug distribution in mouse plasma at 5 mg/kg, po administered as single dose and measured after 2 hrs by LC-MS analysis. Type of data set: ADME, organism-based.
Data set [4] addresses D(1A) dopamine receptor (Homo sapiens) (UniProt P21728). The data set is described as follows: Antagonist activity at DRD1 (unknown origin) expressed in HEK293 cells co-expressing Galpha16 assessed as inhibition of dopamine induced calcium response upto 100 uM incubated for 10 mins by calcium mobilization assay. The class given is functional, cell-based.
Data set [5] deals with Beta-1 adrenergic receptor (Homo sapiens) (UniProt P08588). The data set is described as follows: Antagonist activity at ARbeta1 (unknown origin) expressed in HEK293 cells co-expressing Galpha16 assessed as inhibition of Isoproterenol induced calcium response upto 100 uM incubated for 10 mins by calcium mobilization assay. Type of data set: functional, cell-based.
Data set [6] in a line: AUClast in ICR mouse at 5 mg/kg, po administered as single dose. The class given is ADME, organism-based. More on the design: dose 5 mg/kg, route po. The following applies: in vivo.
A short description of data set [7]: Drug distribution in mouse plasma at 5 mg/kg, po administered as single dose and measured after 0.5 hrs by LC-MS analysis. The class given is ADME, organism-based.
A short description of data set [8]: Drug distribution in mouse lung at 5 mg/kg, po administered as single dose and measured after 0.5 hrs by LC-MS analysis. The following applies: read-out: Drug uptake. Type of data set: ADME, organism-based.
In data set [9] the target is Delta-type opioid receptor (Homo sapiens) (UniProt P41143). The experiment in a line: Antagonist activity at DOR (unknown origin) expressed in CHO-K1 cells co-expressing Galpha16 assessed as inhibition of DPDPE induced calcium response upto 100 uM incubated for 10 mins by calcium mobilization assay. Type of data set: functional, cell-based.
Data set [10] in a line: Oral bioavailability in ICR mouse at 5 mg/kg administered as single dose. Type of data set: ADME, organism-based. The settings on record: in vivo.
In data set [11] the target is Beta-2 adrenergic receptor (Homo sapiens) (UniProt P07550). The data set is described as follows: Antagonist activity at ARbeta2 (unknown origin) expressed in HEK293 cells co-expressing Galpha16 assessed as inhibition of Isoproterenol induced calcium response upto 100 uM incubated for 10 mins by calcium mobilization assay. The class given is functional, cell-based.

Data set [12] in a line: Drug distribution in mouse plasma at 5 mg/kg, po administered as single dose and measured after 8 hrs by LC-MS analysis. Type of data set: ADME, organism-based. The following applies: read-out: Drug uptake.
Data set [13] has as its target Beta-3 adrenergic receptor (Homo sapiens) (UniProt P13945). The experiment in a line: Antagonist activity at ARbeta3 (unknown origin) expressed in HEK293 cells co-expressing Galpha16 assessed as inhibition of Isoproterenol induced calcium response upto 100 uM incubated for 10 mins by calcium mobilization assay. The class given is functional, cell-based.
Data set [14] in a line: Aqueous solubility of the compound incubated overnight by HPLC-DAD analysis. The following applies: aqueous medium. Type of data set: physicochemical.
The target in data set [15] is T2, Alpha-1A adrenergic receptor (Homo sapiens) (UniProt P35348).
T2 sequence (whole entry): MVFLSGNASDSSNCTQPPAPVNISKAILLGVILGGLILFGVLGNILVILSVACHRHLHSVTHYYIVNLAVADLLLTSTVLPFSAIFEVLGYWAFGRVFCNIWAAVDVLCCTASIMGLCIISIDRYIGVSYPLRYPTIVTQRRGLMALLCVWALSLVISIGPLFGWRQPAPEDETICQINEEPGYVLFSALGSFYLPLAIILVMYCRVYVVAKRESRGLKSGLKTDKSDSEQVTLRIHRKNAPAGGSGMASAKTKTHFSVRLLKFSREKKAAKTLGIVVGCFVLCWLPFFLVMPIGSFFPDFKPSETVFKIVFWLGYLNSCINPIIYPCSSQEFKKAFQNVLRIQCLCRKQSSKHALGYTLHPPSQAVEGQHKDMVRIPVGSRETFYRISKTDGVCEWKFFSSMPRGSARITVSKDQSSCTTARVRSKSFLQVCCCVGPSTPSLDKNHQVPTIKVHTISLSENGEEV
The experiment in a line: Antagonist activity at ARalpha1A (unknown origin) expressed in HEK293 cells co-expressing Galpha16 assessed as inhibition of Phenylephrine induced calcium response upto 100 uM incubated for 10 mins by calcium mobilization assay. The class given is functional, cell-based.

The target in data set [16] is Free fatty acid receptor 1 (Homo sapiens) (UniProt O14842). The experiment in a line: Antagonist activity at GPR40 (unknown origin) expressed in HEK293 cells co-expressing Galpha16 assessed as inhibition of TAK-875 induced calcium response upto 100 uM incubated for 10 mins by calcium mobilization assay. The class given is functional, cell-based.
In a further data set the test system is Neutrophil. The data set is described as follows: Inhibition of cell migration in 3-hydroxydodecanoic acid-stimulated mouse CD11bpositive Ly6Gpositive neutrophils at 0.01 to 1 uM incubated for 1.5 hrs by flow cytometric analysis. The class given is functional, cell-based. The settings on record: dose 0.01-1 µM.
Data set [17] is described as follows: Drug distribution in mouse brain at 5 mg/kg, po administered as single dose and measured after 2 hrs by LC-MS analysis. Type of data set: ADME, organism-based. The following applies: read-out: Drug uptake.
Data set [18] can be described thus: Drug distribution in mouse brain at 5 mg/kg, po administered as single dose and measured after 0.5 hrs by LC-MS analysis. The following applies: read-out: Drug uptake. The class given is ADME, organism-based.
Data set [19] has as its system Monocyte. The experiment in a line: Inhibition of cell migration in 6-n-[…]-stimulated mouse CD11bpositive Ly6Cpositive monocyte at 0.01 to 1 uM incubated for 1.5 hrs by flow cytometric analysis. The class given is functional, cell-based. The settings on record: dose 0.01-1 µM.
Data set [20] can be described thus: Drug distribution in mouse liver at 5 mg/kg, po administered as single dose and measured after 8 hrs by LC-MS analysis. The settings on record: read-out: Drug uptake. Type of data set: ADME, organism-based.
Data set [21] is described as follows: Drug distribution in mouse lung at 5 mg/kg, po administered as single dose and measured after 2 hrs by LC-MS analysis. The class given is ADME, organism-based. The following applies: read-out: Drug uptake.
The subject of data set [22] is Monocyte. The experiment in a line: Inhibition of cell migration in 3-hydroxydodecanoic acid-stimulated mouse CD11bpositive Ly6Cpositive monocytes at 0.01 to 1 uM incubated for 1.5 hrs by flow cytometric analysis. The settings on record: dose 0.01-1 µM. Type of data set: functional, cell-based.

Sequence of Delta-type opioid receptor (Homo sapiens) (P41143 whole entry): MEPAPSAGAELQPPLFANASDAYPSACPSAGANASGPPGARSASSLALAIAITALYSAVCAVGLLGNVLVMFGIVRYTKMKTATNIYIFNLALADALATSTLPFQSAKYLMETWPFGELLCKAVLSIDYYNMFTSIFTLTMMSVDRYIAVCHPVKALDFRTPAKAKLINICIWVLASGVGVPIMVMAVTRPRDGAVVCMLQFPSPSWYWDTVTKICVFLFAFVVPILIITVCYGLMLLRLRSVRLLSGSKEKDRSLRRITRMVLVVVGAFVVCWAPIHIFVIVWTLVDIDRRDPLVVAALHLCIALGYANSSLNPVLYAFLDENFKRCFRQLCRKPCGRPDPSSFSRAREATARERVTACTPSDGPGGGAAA
Sequence of Beta-2 adrenergic receptor (Homo sapiens) (P07550 whole entry, looked up): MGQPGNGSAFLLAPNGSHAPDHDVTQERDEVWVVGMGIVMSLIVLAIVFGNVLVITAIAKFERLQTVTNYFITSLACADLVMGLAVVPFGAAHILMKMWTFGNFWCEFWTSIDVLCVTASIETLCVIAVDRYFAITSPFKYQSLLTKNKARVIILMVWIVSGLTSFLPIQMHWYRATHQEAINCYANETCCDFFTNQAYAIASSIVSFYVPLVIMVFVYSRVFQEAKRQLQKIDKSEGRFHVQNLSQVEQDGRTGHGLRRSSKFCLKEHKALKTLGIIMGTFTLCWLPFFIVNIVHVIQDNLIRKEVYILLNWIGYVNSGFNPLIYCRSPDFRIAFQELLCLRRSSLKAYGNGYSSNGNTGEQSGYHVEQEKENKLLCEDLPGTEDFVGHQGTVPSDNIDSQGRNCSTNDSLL
Sequence of Beta-3 adrenergic receptor (Homo sapiens) (P13945 whole entry, looked up): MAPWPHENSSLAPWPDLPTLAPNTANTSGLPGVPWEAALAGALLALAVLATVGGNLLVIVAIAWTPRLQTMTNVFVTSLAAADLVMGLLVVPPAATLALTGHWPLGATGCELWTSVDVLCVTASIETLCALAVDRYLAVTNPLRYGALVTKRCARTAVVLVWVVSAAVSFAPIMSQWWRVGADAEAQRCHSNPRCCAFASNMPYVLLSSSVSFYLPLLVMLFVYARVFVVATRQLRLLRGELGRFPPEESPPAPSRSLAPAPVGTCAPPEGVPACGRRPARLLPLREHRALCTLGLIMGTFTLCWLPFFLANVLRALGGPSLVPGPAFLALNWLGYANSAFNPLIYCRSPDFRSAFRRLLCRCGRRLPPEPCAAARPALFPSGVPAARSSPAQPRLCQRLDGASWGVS
Sequence of Beta-1 adrenergic receptor (Homo sapiens) (P08588 whole entry, looked up): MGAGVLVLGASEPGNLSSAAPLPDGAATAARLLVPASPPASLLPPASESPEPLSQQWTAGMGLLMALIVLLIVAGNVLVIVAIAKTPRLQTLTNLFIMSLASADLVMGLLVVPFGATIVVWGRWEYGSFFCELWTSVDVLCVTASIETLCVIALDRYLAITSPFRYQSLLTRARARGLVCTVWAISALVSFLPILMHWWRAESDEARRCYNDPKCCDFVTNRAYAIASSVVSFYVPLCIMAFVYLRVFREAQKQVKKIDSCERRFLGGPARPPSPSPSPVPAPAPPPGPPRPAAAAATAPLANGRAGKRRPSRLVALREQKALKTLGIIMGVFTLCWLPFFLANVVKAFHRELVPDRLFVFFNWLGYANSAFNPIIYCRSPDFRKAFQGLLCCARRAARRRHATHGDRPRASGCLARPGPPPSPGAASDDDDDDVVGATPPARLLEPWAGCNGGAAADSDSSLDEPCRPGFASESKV
Sequence of D(1A) dopamine receptor (Homo sapiens) (P21728 whole entry): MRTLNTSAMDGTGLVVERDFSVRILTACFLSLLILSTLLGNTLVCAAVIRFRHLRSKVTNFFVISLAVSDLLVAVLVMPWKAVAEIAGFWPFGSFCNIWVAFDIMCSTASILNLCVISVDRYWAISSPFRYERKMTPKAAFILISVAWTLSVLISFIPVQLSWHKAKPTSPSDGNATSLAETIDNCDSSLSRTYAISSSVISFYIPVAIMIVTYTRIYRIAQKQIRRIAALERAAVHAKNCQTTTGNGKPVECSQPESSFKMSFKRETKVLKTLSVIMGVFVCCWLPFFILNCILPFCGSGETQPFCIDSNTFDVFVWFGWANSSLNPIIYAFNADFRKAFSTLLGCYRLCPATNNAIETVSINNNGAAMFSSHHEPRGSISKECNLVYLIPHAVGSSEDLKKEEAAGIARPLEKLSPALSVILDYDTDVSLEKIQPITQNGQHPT
Sequence of Free fatty acid receptor 1 (Homo sapiens) (O14842 whole entry): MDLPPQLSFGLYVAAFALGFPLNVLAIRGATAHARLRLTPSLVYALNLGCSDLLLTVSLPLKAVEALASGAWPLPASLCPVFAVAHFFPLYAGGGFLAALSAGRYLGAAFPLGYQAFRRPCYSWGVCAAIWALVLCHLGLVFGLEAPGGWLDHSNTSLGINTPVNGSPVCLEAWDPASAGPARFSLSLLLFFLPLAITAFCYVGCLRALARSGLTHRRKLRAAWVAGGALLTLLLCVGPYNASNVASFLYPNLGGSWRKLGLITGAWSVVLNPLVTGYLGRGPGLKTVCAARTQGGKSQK

For `O=P([O-])(OC1=Cc2c(Cl)cccc2Sc2ccccc21)OC1=Cc2c(Cl)cccc2Sc2ccccc21.[Na+]`, the concentration at 8 h in data set [1] turned out to be 26.1 ng/g; in data set [12], 50.7 ng/mL; in data set [20], 1180 ng/g. Moreover, the inhibition entry in [2], in data set [4], in [5], in data set [9], in data set [11] and in data set [13] was “inactive” throughout. Besides, the inhibition result in data set [15] and in data set [16] was “inactive” throughout. Also, the concentration at 2 h in data set [3] was 393 ng/mL; in [17], 6.3 ng/g; in data set [21], 60.5 ng/g. The same compound displayed an AUC(0-t) in data set [6] of 502 ng·h/mL. For the same compound, the concentration at 0.5 h in [7] was 135 ng/mL; in data set [8] it was 18.6 ng/g; in data set [18], 6.8 ng/g. In data set [10], this compound registered a bioavailability of 12%. In [14], this compound displayed a solubility of 891 µg/mL. For the same compound, the inhibition entry in the data set on Neutrophil, with Monocyte [19] and in the data set with Monocyte [22] was “Active” throughout.

The values above are taken from ChEMBL document CHEMBL5380862, “Unsymmetrical Phosphodiesters as GPR84 Antagonists with High Blood Exposure for the Treatment of Lung Inflammation” (J Med Chem, 2023).
